T/C data for 22 compounds are collected here from PubChem BioAssay AID330 (DTP/NCI, 2004).

The structures appear in SMILES notation. Values joined by “and” are separate entries in the source; they are usually repeats but may differ in a detail not shown here. Identical values can stand only once. Toxic doses and inconclusive results are not listed.

The experiment relates to P388 leukemia ip, CD2F1 mice, survival T/C. The experiment is described as follows: NCI In Vivo Anticancer Drug Screen. Data for tumor model P388 Leukemia (intraperitoneal) in CD2F1 (CDF1) mice. As to conditions: endpoint: median survival time, higher = longer survival. Put shortly:
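Mice carrying the transplanted tumor received test compound or vehicle. Survival was recorded in each group, and the value is the treated-group measurement divided by that of the vehicle-treated control group.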

The mark [1] stands for this setting: dose: 50.0 mg/kg/injection, schedule: Q01DX009 (ip), vehicle: saline with Tween-80.
Where [2] appears, read: dose: 100.0 mg/kg/injection, schedule: Q01DX009 (ip), vehicle: saline with Tween-80.
Where [3] appears, read: dose: 200.0 mg/kg/injection, schedule: Q01DX009 (ip), vehicle: saline with Tween-80.
Setting [4] is: dose: 50.0 mg/kg/injection, schedule: Q01DX005 (ip), vehicle: saline with Tween-80.
Where [5] appears, read: dose: 100.0 mg/kg/injection, schedule: Q01DX005 (ip), vehicle: saline with Tween-80.
[6] abbreviates: dose: 200.0 mg/kg/injection, schedule: Q01DX001 (ip), vehicle: saline with Tween-80.
The mark [7] stands for this setting: dose: 400.0 mg/kg/injection, schedule: Q01DX001 (ip), vehicle: saline with Tween-80.
[8] abbreviates: dose: 200.0 mg/kg/injection, schedule: Q01DX005 (ip), vehicle: saline with Tween-80.
[9] abbreviates: dose: 100.0 mg/kg/injection, schedule: Q04DX002 (ip), vehicle: saline with Tween-80.
Setting [10] is: dose: 25.0 mg/kg/injection, schedule: Q01DX009 (ip), vehicle: Klucel (hydroxypropylcellulose) (HPC).
Where [11] appears, read: dose: 50.0 mg/kg/injection, schedule: Q01DX009 (ip), vehicle: Klucel (hydroxypropylcellulose) (HPC).
[12] abbreviates: dose: 25.0 mg/kg/injection, schedule: Q01DX009 (ip), vehicle: saline with Tween-80.

For the compound `O=S(=O)(O)O.O=S(=O)([O-])[O-].O=[N+]([O-])O.[Co+3].[Co+3].[NH2-].[NH2-].[NH2-].[NH2-].[NH2-].[NH2-].[NH2-].[NH2-].[NH2-]`, the T/C (dose: 1.0 mg/kg/injection, schedule: Q01DX009 (ip), vehicle: saline) is 98 % of control and the T/C (dose: 2.0 mg/kg/injection, schedule: Q01DX009 (ip), vehicle: saline) is 93 % of control.

Consider `CC(C)(C)OC(=O)NC(Cc1cn(Cc2ccccc2)cn1)C(=O)O` (stereo unspecified), for which the T/C under setting [1] is 96 % of control, the T/C under setting [2] was 89 % of control and the T/C under setting [3] was 108 % of control.

For `OCC1CCN(CCOCc2ccccc2)C1` (stereo unspecified), the T/C is 94 % of control (dose: 60.0 mg/kg/injection, schedule: Q01DX005 (ip), vehicle: saline with Tween-80) and 102 % of control (dose: 120.0 mg/kg/injection, schedule: Q01DX005 (ip), vehicle: saline with Tween-80).

Turning to `CCOC(=O)NC(NC(=O)OCC)C(=O)Nc1cccc2c(OC(=O)C(NC(=O)OCC)NC(=O)OCC)c(N=Nc3ccc(S(=O)(=O)Nc4nccs4)cc3)cc(N=Nc3ccc(S(=O)(=O)Nc4nccs4)cc3)c12` (tested in a mixture with another compound), the T/C was 117 % of control under setting [4]; 112 % of control and 94 % of control under setting [5].

In the case of `O=C(O)c1ccc(COc2ccc([N+](=O)[O-])cc2Cl)cc1`, the T/C runs as follows: (dose: 100.0 mg/kg/injection, schedule: Q04DX003 (ip), vehicle: saline) 100 % of control; (dose: 200.0 mg/kg/injection, schedule: Q04DX003 (ip), vehicle: saline) 99 % of control.

As to `O=C1OCCCCCCOC(=O)c2ccccc2SSc2ccccc21`, the T/C reads like this: (dose: 12.5 mg/kg/injection, schedule: Q01DX001 (ip), vehicle: saline with Tween-80) 101 % of control; (dose: 25.0 mg/kg/injection, schedule: Q01DX001 (ip), vehicle: saline with Tween-80) 94 % of control; (dose: 50.0 mg/kg/injection, schedule: Q01DX001 (ip), vehicle: saline with Tween-80) 94 % of control; under setting [6], 88 % of control; under setting [7], 90 % of control.

For `Cn1c2ccccc2c(=S)c2cc(NC(=O)CCCCC(=O)Nc3ccc4c(c3)c(=S)c3ccccc3n4C)ccc21`, the T/C runs as follows: under setting [4], 110 % of control; under setting [5], 98 % of control; under setting [8], 104 % of control.

For `O=Cc1cc(/C=N/Nc2ccc([N+](=O)[O-])cc2[N+](=O)[O-])nc2[nH]c(=O)ccc12`, the T/C is, setting by setting: under setting [9], 97 % of control; (dose: 200.0 mg/kg/injection, schedule: Q04DX002 (ip), vehicle: saline with Tween-80) 104 % of control; (dose: 400.0 mg/kg/injection, schedule: Q04DX002 (ip), vehicle: saline with Tween-80) 95 % of control.

For the compound `CCOC(=O)Nc1ccc2nc(Sc3ccc(Cl)cc3)sc2c1`, the T/C is 103 % of control under setting [1], 100 % of control under setting [2] and 106 % of control under setting [3].

In the case of `Cc1ccc(S(=O)(=O)N2CC3CNC(=O)C(C3)C2)cc1` (stereo unspecified), the T/C was 104 % of control (dose: 100.0 mg/kg/injection, schedule: Q01DX001 (ip), vehicle: Klucel (hydroxypropylcellulose) (HPC)); 101 % of control (dose: 200.0 mg/kg/injection, schedule: Q01DX001 (ip), vehicle: Klucel (hydroxypropylcellulose) (HPC)); 107 % of control (dose: 400.0 mg/kg/injection, schedule: Q01DX001 (ip), vehicle: Klucel (hydroxypropylcellulose) (HPC)).

On to `FC(F)(F)C1=C(C(F)(F)F)SP23(OCCC(CO2)O3)S1` (stereo unspecified), for which the T/C (dose: 12.5 mg/kg/injection, schedule: Q01DX009 (ip), vehicle: Klucel (hydroxypropylcellulose) (HPC)) is 107 % of control and 108 % of control; the T/C under setting [10] was 106 % of control and 114 % of control; the T/C under setting [11] is 109 % of control and 114 % of control; the T/C (dose: 100.0 mg/kg/injection, schedule: Q01DX009 (ip), vehicle: Klucel (hydroxypropylcellulose) (HPC)) was 107 % of control and 116 % of control.

`COc1cc2c(c(OC)c1OC)-c1ccc(SC)c(=O)cc1C(NC(=S)NC1OCC(OC(C)=O)C(OC(C)=O)C1OC(C)=O)CC2` (stereo unspecified): the T/C reads like this: under setting [12], 178 % of control and 184 % of control; under setting [1], 200 % of control and 191 % of control; under setting [2], 93 % of control and 101 % of control.

With `O=C(/C=C/c1ccc(O)c(O)c1)NCC(=O)NC(Cc1ccccc1)C(=O)O` (stereo unspecified), the T/C reads like this: under setting [4], 99 % of control; under setting [5], 100 % of control; under setting [8], 103 % of control.

`COc1cc2c(c(OC)c1OC)-c1ccc(=O)c(OC)cc1[C@@H](NC(=O)C(F)(F)F)CC2`: the T/C is 105 % of control (dose: 2.5 mg/kg/injection, schedule: Q01DX009 (ip), vehicle: Klucel (hydroxypropylcellulose) (HPC)); 97 % of control (dose: 5.0 mg/kg/injection, schedule: Q01DX009 (ip), vehicle: Klucel (hydroxypropylcellulose) (HPC)); 96 % of control (dose: 10.0 mg/kg/injection, schedule: Q01DX009 (ip), vehicle: Klucel (hydroxypropylcellulose) (HPC)); 105 % of control (dose: 20.0 mg/kg/injection, schedule: Q01DX009 (ip), vehicle: Klucel (hydroxypropylcellulose) (HPC)); 102 % of control (dose: 40.0 mg/kg/injection, schedule: Q01DX009 (ip), vehicle: Klucel (hydroxypropylcellulose) (HPC)).

With `Cc1cccc(C)c1NC(=O)C1C(=O)C(=O)N(c2c(C)cccc2C)C1=O` (stereo unspecified), the T/C reads like this: (dose: 25.0 mg/kg/injection, schedule: Q04DX002 (ip), vehicle: saline with Tween-80) 100 % of control; (dose: 50.0 mg/kg/injection, schedule: Q04DX002 (ip), vehicle: saline with Tween-80) 101 % of control; under setting [9], 98 % of control and 100 % of control.

Turning to `COc1ccc2c(c1O)-c1cc(O)cc3c1[C@@H](C2)N(C)CC3`, the T/C is 104 % of control under setting [4] and 104 % of control under setting [5].

On to `O=C1NC(Cc2ccccc2)C(=O)NC1Cc1ccccc1` (stereo unspecified), for which the T/C (dose: 3.13 mg/kg/injection, schedule: Q01DX009 (ip), vehicle: saline with Tween-80) is 86 % of control; the T/C (dose: 6.25 mg/kg/injection, schedule: Q01DX009 (ip), vehicle: saline with Tween-80) was 100 % of control; the T/C (dose: 12.5 mg/kg/injection, schedule: Q01DX009 (ip), vehicle: saline with Tween-80) was 107 % of control; the T/C under setting [10] is 101 % of control; the T/C under setting [12] is 103 % of control; the T/C under setting [11] was 104 % of control.

In the case of `COC(=O)c1ccccc1N1C(=O)c2ccccc2NP1(=O)Oc1ccccc1` (stereo unspecified), the T/C was 101 % of control (dose: 25.0 mg/kg/injection, schedule: Q01DX005 (ip), vehicle: Klucel (hydroxypropylcellulose) (HPC)); 104 % of control (dose: 50.0 mg/kg/injection, schedule: Q01DX005 (ip), vehicle: Klucel (hydroxypropylcellulose) (HPC)); 106 % of control (dose: 100.0 mg/kg/injection, schedule: Q01DX005 (ip), vehicle: Klucel (hydroxypropylcellulose) (HPC)); 91 % of control (dose: 200.0 mg/kg/injection, schedule: Q01DX005 (ip), vehicle: Klucel (hydroxypropylcellulose) (HPC)).

Take `Cc1ccccc1-[n+]1noc(N)n1`: the T/C reads like this: (dose: 3.13 mg/kg/injection, schedule: Q01DX009 (ip), vehicle: water) 101 % of control; (dose: 6.25 mg/kg/injection, schedule: Q01DX009 (ip), vehicle: water) 113 % of control; (dose: 12.5 mg/kg/injection, schedule: Q01DX009 (ip), vehicle: water) 120 % of control; (dose: 14.7 mg/kg/injection, schedule: Q01DX009 (ip), vehicle: water) 106 % of control.

Take `CCCCCCCCCCCCCCCCCCCCCCCCC(O)C(=O)NC(CO)C(O)C(O)CCCCCCCCCCCCCC` (stereo unspecified): the T/C is 91 % of control (dose: 1.56 mg/kg/injection, schedule: Q04DX003 (ip), vehicle: saline with Tween-80); 100 % of control (dose: 3.13 mg/kg/injection, schedule: Q04DX003 (ip), vehicle: saline with Tween-80); 95 % of control (dose: 6.25 mg/kg/injection, schedule: Q04DX003 (ip), vehicle: saline with Tween-80).

For `CNC(=O)Oc1cccc2c1C(=O)OC2=O`, the T/C was 100 % of control (dose: 100.0 mg/kg/injection, schedule: Q01DX001 (ip), vehicle: saline with Tween-80); 92 % of control under setting [6]; 102 % of control under setting [7].

Consider `CN(C)Cc1cn(C)c2ccccc12`, for which the T/C (dose: 12.5 mg/kg/injection, schedule: Q01DX005 (ip), vehicle: saline) was 99 % of control; the T/C (dose: 25.0 mg/kg/injection, schedule: Q01DX005 (ip), vehicle: saline) is 93 % of control; the T/C (dose: 50.0 mg/kg/injection, schedule: Q01DX005 (ip), vehicle: saline) is 98 % of control and 95 % of control.
